Measurements as given in ChEMBL document CHEMBL1201862, “PubChem BioAssay data set” (2004).
Activity calls are given as the source filed them.

Tests used:
Genome polyprotein = Genome polyprotein (dengue virus type 2, UniProt P29990); experiment: Dengue-2 NS5 methyltransferase inhibitors, primary screen, biochemical, confirmation dose response (AID 588689); format: functional
[1] = THP-1 cell cytotoxicity, dose response, cytotoxicity control for Vif-APOBEC3G degradation inhibitor project, THP-1 cells (AID 1117359); format: functional; details: Human immunodeficiency virus 1, THP-1
[2] = target: T1, Polyadenylate-binding protein 1 (Homo sapiens, UniProt P11940); experiment: PABP1 MLLE–PAM2 binding inhibitor potency, dose response, biochemical, fluorescence polarization, FITC-PAM2 peptide (AID 602259); format: functional; details: read-out: IC50_Mean
[3] = target: T1, Polyadenylate-binding protein 1; experiment: PABP1 MLLE–PAM2 interaction inhibitors, dose response, miRNA deadenylation inhibitor project, biochemical, fluorescence polarization, Cy5-PAM2 peptide, secondary (AID 602260); format: functional; details: read-out: IC50_Mean
[4] = target: T2, Replicative DNA helicase DnaB (Mycobacterium tuberculosis, UniProt P9WMR3); experiment: DnaB intein splicing inhibitors, dose response, biochemical, cell-free fluorescence (AID 449749); format: functional
T2 sequence (P9WMR3 whole entry): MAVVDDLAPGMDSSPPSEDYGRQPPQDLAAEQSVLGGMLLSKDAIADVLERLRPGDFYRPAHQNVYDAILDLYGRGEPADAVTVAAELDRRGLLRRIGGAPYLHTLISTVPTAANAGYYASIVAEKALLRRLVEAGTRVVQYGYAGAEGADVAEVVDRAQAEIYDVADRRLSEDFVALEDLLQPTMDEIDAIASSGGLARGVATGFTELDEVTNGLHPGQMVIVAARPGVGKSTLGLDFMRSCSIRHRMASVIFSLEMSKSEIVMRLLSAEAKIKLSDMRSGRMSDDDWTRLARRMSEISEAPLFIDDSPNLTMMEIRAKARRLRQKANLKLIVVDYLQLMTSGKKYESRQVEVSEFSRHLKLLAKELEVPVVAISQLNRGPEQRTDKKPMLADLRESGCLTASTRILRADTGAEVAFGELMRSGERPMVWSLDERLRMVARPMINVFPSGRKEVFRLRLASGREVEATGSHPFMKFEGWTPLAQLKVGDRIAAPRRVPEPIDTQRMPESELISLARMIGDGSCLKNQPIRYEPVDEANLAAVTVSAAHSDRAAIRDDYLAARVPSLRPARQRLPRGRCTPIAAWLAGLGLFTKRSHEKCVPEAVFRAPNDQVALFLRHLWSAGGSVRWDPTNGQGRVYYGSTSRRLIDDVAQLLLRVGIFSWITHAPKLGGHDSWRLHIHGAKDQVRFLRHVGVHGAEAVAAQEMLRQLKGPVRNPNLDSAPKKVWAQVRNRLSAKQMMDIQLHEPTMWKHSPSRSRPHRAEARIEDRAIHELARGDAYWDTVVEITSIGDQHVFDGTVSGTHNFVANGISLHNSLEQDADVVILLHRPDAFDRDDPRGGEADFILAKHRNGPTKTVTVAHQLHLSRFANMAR

Protein RecA = target: T3, Protein RecA (Mycobacterium tuberculosis, UniProt P9WHJ3); experiment: Fluorescence Cell-Free Homogeneous Dose Retest to Identify Inhibitors of RecA-Intein Splicing Activity. [Related pubchem assays (depositor defined):AID2097, AID2223, AID489010, AID492950]; format: functional
T3 sequence (P9WHJ3 whole entry): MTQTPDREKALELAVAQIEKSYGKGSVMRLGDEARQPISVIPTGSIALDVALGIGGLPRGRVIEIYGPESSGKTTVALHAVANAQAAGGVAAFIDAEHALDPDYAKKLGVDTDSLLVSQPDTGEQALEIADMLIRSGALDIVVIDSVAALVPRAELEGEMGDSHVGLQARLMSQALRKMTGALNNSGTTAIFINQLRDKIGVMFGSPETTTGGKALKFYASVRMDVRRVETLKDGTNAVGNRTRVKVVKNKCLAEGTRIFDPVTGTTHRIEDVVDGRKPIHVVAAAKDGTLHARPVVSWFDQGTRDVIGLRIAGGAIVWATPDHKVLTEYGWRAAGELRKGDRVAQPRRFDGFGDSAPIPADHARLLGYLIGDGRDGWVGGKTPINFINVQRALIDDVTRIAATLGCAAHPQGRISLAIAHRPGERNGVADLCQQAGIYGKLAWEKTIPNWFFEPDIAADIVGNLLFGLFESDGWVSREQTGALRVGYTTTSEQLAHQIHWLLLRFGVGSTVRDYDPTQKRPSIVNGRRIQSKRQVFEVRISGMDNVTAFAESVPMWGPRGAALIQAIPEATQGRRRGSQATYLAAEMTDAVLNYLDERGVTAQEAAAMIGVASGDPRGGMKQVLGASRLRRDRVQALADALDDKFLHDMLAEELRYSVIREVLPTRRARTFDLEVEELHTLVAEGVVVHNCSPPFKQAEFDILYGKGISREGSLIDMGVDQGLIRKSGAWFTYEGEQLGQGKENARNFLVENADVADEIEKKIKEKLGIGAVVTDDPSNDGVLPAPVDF

Estrogen receptor beta = Estrogen receptor beta (Homo sapiens, UniProt Q92731);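 note: recombinant ER-beta bound to coactivator SRC1 peptide in presence of estradiol agonist; inhibitors block coactivator peptide binding and lower the FRET signal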
[5] = intracellular Trypanosoma cruzi inhibitors in host cells – cell-based, plate reader, cherry-pick samples, set 3, dose response (AID 651818); format: functional;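 note: compounds incubated with infected cells for about four days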
Leucine aminopeptidase = target: T4, Leucine aminopeptidase (Plasmodium falciparum 3D7, UniProt Q8IL11); experiment: P. falciparum M17LAP inhibitors, primary screen, biochemical, fluorogenic H-Leu-NHMec substrate, 1536-well (AID 1619); format: functional
T4 sequence (Q8IL11 whole entry): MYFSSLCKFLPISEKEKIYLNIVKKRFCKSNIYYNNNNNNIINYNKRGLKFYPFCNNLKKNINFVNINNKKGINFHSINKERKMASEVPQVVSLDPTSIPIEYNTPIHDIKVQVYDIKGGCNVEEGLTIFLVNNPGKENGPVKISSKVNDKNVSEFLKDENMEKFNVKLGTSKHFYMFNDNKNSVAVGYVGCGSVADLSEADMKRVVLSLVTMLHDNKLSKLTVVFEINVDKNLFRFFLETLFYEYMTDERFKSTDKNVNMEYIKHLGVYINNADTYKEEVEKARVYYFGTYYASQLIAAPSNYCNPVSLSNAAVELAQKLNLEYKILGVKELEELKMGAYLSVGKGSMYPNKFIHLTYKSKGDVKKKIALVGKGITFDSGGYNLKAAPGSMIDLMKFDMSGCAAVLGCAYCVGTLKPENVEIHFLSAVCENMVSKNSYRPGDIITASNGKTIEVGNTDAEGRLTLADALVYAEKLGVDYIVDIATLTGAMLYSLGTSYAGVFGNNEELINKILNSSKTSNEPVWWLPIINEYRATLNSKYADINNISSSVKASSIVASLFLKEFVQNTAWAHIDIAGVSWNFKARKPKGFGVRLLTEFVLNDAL

CHO = experiment: cytotoxicity in TLR9-MyD88 CHO cells, dose response, cytotoxicity control for TLR9-MyD88 binding inhibitor project, cell-based, luminescence (AID 588339); format: functional, hamster; details: Cricetulus griseus;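 note: CHO cells stably coexpressing TLR9 and MyD88 fusions from primary screen; compound exposure lasted 48 hours before viability readout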
Beta Lactamase = Beta Lactamase (Pseudomonas aeruginosa, UniProt Q932Y6); experiment: beta-lactamase reporter inhibitor potency, dose response, artefact control for TLR9-MyD88 binding inhibitor project, BLA reporter cells, FRET fluorescence (AID 588341); format: cell-based;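 note: cell based assay in CHO-K1 cells stably expressing beta-lactamase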
[6] = microbe, parasite or virus in culture; format: functional; details: Mycobacterium tuberculosis
Cytochrome P450 2C19 = Cytochrome P450 2C19 (Homo sapiens, UniProt P33261); experiment: Cytochrome panel assay with activity outcomes. Panel member name: p450-cyp2c19 Compounds with AC50 equal or less than 10 uM are considered active; format: functional
Cytochrome P450 2C9 = Cytochrome P450 2C9 (Homo sapiens, UniProt P11712)
Cytochrome P450 3A4 = Cytochrome P450 3A4 (Homo sapiens, UniProt P08684);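 note: CYP3A4 tested as one member of a cytochrome P450 panel screen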
[7] = target: T5, Corticotropin-releasing factor receptor 2/Corticotropin-releasing factor-binding protein (Homo sapiens, UniProt P24387+Q13324); experiment: activators of CRF receptor 2 with binding protein – uHTS hits, confirmation (AID 602473); format: functional; details: read-out: EC50_Mean
T5 sequence (Q13324 whole entry): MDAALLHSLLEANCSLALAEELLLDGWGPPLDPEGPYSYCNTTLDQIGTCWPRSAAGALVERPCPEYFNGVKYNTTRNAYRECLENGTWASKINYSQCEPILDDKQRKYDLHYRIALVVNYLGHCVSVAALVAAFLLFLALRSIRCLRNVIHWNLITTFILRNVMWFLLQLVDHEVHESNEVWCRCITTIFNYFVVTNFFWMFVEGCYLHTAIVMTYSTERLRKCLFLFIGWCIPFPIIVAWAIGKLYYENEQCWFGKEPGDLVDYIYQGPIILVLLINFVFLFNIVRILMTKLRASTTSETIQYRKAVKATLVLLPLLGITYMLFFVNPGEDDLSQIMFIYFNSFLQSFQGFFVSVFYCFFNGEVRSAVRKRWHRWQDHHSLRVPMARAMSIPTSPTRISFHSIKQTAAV
T5 sequence (P24387 whole entry): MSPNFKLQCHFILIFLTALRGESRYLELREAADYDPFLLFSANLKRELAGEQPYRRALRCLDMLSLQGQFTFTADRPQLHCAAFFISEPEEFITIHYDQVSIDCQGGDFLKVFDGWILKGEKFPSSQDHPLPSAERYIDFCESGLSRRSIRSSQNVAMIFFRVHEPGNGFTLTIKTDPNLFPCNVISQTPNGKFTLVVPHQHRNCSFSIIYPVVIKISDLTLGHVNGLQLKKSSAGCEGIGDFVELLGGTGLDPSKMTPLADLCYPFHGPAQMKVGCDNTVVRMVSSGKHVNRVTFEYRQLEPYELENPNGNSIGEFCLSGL

T1 sequence (P11940 whole entry): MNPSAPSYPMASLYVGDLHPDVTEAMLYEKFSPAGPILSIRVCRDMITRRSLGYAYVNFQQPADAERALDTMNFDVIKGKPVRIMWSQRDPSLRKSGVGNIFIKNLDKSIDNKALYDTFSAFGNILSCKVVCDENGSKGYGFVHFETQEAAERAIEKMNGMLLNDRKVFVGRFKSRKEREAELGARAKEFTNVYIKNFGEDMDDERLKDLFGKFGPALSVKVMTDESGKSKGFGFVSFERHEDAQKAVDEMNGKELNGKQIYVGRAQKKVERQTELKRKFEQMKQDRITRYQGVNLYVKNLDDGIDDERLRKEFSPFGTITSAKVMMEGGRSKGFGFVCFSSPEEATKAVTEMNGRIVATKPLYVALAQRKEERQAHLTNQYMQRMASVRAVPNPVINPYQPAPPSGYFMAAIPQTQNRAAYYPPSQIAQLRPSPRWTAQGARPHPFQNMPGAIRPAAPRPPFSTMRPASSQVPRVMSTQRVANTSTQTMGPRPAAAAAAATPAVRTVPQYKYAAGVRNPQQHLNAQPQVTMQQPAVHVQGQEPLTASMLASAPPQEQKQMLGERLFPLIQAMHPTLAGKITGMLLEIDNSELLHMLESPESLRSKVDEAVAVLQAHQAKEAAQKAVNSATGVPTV
Sequence of Estrogen receptor beta (Q92731 whole entry): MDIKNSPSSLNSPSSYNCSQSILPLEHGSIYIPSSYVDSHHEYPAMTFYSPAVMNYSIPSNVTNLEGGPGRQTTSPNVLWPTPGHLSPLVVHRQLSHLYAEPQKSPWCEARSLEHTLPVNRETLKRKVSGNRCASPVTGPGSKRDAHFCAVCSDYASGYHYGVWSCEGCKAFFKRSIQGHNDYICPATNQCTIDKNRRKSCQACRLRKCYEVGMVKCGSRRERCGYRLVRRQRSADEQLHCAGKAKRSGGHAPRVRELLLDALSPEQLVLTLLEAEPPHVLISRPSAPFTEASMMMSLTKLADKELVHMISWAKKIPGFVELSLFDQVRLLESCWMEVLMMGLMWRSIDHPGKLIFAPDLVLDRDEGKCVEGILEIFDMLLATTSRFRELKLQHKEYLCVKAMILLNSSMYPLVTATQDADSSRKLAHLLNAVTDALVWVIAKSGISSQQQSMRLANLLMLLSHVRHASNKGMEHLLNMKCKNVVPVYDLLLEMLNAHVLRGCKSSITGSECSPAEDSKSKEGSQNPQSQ
Sequence of Genome polyprotein (P29990 2492-3391 limits assumed): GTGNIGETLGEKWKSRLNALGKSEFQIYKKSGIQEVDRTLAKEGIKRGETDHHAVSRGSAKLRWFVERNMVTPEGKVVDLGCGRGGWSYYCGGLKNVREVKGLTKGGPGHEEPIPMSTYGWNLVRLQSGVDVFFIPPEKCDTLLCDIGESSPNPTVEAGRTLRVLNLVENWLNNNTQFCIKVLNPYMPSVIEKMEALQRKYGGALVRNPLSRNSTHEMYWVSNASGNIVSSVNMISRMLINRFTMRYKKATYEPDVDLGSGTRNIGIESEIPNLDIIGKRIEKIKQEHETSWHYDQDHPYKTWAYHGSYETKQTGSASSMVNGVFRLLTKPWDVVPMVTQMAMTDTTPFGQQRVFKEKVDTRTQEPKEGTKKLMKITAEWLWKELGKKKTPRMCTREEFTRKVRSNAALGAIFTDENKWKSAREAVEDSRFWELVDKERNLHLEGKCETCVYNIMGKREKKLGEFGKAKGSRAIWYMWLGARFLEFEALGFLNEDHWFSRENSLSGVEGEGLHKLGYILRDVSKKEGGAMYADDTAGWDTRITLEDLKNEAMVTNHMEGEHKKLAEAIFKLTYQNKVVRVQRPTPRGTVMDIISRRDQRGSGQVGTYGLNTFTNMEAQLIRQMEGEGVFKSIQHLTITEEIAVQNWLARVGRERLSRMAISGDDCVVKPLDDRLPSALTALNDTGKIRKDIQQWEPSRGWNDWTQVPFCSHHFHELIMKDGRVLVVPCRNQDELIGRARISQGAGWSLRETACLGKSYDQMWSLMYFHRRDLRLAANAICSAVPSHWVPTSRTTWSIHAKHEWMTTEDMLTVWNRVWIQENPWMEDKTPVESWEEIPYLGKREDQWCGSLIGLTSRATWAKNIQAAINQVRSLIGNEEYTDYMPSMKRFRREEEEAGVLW
Sequence of Cytochrome P450 2C9 (P11712 whole entry): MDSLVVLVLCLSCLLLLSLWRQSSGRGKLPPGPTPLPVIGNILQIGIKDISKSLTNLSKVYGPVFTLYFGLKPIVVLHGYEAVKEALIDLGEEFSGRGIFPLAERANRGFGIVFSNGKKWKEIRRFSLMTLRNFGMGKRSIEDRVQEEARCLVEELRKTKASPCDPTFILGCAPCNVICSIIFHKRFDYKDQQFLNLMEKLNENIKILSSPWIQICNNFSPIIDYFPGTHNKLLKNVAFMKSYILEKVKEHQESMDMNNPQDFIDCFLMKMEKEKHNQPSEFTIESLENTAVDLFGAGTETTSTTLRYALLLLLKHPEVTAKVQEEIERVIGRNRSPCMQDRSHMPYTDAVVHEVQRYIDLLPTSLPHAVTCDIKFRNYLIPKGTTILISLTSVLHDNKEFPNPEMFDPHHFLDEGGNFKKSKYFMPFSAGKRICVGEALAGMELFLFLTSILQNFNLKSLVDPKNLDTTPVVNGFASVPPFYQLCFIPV
Sequence of Cytochrome P450 2C19 (P33261 whole entry): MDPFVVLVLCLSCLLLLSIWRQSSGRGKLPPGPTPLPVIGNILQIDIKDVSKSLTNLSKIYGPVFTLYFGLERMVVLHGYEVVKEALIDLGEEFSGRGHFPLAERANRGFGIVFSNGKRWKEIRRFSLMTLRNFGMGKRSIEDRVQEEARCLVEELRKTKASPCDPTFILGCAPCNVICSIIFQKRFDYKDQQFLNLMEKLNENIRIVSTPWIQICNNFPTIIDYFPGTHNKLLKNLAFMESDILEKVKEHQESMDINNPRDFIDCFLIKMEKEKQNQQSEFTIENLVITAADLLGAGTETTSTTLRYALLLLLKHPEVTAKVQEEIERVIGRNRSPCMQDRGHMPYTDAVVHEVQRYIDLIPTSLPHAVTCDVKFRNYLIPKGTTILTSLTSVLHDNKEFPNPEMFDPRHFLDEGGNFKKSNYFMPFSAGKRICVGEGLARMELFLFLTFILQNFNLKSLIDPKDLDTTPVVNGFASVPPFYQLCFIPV
Sequence of Cytochrome P450 3A4 (P08684 whole entry): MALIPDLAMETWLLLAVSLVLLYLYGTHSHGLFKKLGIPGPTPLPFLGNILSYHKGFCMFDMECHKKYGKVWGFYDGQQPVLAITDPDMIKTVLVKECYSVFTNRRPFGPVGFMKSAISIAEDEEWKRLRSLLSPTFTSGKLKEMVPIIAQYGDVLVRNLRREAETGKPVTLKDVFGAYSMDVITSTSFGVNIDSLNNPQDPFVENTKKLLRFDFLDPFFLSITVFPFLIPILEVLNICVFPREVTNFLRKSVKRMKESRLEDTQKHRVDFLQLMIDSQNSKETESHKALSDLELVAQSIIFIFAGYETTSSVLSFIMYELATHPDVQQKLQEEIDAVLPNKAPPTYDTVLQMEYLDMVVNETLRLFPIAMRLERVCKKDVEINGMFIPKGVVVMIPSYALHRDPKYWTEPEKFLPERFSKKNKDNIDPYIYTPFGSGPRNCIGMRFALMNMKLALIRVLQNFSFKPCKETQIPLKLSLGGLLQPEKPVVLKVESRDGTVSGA
Sequence of Beta Lactamase (Q932Y6 whole entry): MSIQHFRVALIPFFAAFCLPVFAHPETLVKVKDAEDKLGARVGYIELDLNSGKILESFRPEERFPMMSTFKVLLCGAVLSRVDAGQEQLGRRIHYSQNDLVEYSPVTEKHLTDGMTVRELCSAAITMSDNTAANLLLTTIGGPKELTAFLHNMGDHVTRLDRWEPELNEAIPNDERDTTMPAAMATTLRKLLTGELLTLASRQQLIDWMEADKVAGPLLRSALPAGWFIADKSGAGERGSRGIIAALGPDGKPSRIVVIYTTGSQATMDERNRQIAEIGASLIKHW

SMILES: O=C(O)c1cc([N+](=O)[O-])c(Nc2cccc3ccccc23)c([N+](=O)[O-])c1
- IC50 (Genome polyprotein): 64.7 µM (active)

SMILES: COc1cccc(/C=C2\SC(N)=NC2=O)c1OS(=O)(=O)c1ccccc1
- CC50 [1]: > 40 µM (active)

SMILES: CCC(=O)NC(=S)Nc1c(C)cc(Br)cc1C
- IC50 [2]: > 66 µM (inactive)
- IC50 [3]: > 66 µM (inactive)

SMILES: N#CCCN(C(=O)CCl)c1cccc(Cl)c1
- AC50 [4]: 78.4 µM (active)
- EC50 (Protein RecA): 8.64 µM (active)

SMILES: N#Cc1cc2c(=O)n3ccccc3nc2n(CCCn2ccnc2)c1=N
- IC50 (Estrogen receptor beta): > 50 µM (not active)

SMILES: CS(=O)(=O)c1cccc(C(=O)Nc2nnc(C3=COCCO3)o2)c1
- IC50 [2]: > 66 µM (inactive)
- IC50 [3]: > 66 µM (inactive)

SMILES: C[C@@H]1CN([C@H](C)CO)C(=O)c2cccc(NC(=O)CCCCCC(=O)Nc3ccccc3N)c2O[C@@H]1CN(C)S(=O)(=O)c1ccc(F)cc1
- AC50 [5]: 3.66 µM (active)

SMILES: O=C(NNC(=O)C1CC2CCC1C2)c1sc2ccccc2c1Cl (stereo unspecified)
- IC50 (Leucine aminopeptidase): 68.1 µM (active)

SMILES: Cc1[nH]n(-c2ccccc2)c(=O)c1Sc1ccc(Cl)cc1
- AC50 [4]: 12.2 µM (active)
- IC50 (Estrogen receptor beta): > 50 µM (not active)
- EC50 (Protein RecA): 4.68 µM (active)
- IC50 (Leucine aminopeptidase): 37.4 µM (active)

SMILES: COc1ccc(OC)c(C=Cc2ccc([N+](=O)[O-])cc2)c1
- IC50 (CHO): > 49.7 µM (inactive)
- IC50 (Beta Lactamase): 8.19 µM (active)

SMILES: CCOc1ccc(C(=O)CN2CCN(S(=O)(=O)c3ccc(OC)cc3)CC2)cc1
- IC50 (Leucine aminopeptidase): 73.5 µM (active)

SMILES: Clc1ccc(-c2nc3cnccn3c2Nc2ccc3c(c2)OCO3)cc1
- CC50 [1]: 19.9 µM (active)

SMILES: C[C@H](CO)N1C[C@H](C)[C@@H](CN(C)CC2CC2)Oc2c(NC(=O)CCCCCC(=O)Nc3ccccc3N)cccc2C1=O
- AC50 [5]: 2.88 µM (active)

SMILES: C[C@H](CO)N1C[C@H](C)[C@H](CN(C)Cc2ccc(Cl)c(Cl)c2)Oc2c(NC(=O)Nc3ccc4c(c3)OCO4)cccc2C1=O
- AC50 [5]: 2.61 µM (active)

SMILES: Cc1ccc(S(=O)(=O)NC(CC(C)C)C(=O)N2CCN(C/C=C/c3ccccc3)CC2)cc1 (stereo unspecified)
- CC50 [1]: > 40 µM (active)
- CC50 [6]: > 40 µM (active)

SMILES: COc1ccc(CCN(C)C(=O)COC(=O)/C=C/c2ccc(C)o2)cc1OC
- CC50 [1]: > 40 µM (active)

SMILES: CC1(C(=O)O)CC(C)(C(=O)O)CC(C)(C(=O)O)C1 (stereo unspecified)
- IC50 (Leucine aminopeptidase): 58.7 µM (active)

SMILES: Cc1ccc(-n2nc(C)c3c2OC(N)=C(C#N)C3c2ccoc2)cc1 (stereo unspecified)
- AC50 [4]: 5.41 µM (active)
- EC50 (Protein RecA): 2.56 µM (active)

SMILES: COc1ccc(-n2c(SC)nc(O)c(Cc3ccccc3)c2=O)cc1
- AC50 (Cytochrome P450 2C19): 7.94 µM (inconclusive)
- AC50 (Cytochrome P450 2C9): 12.6 µM (inconclusive)
- IC50 (Leucine aminopeptidase): 46 µM (active)
- AC50 (Cytochrome P450 3A4): 22.4 µM (inconclusive)

SMILES: N#CC1=C(N)Oc2[nH]nc(-c3ccc(F)cc3)c2C1c1cccc(OC(=O)N2CCOCC2)c1 (stereo unspecified)
- AC50 [4]: 6.74 µM (active)
- EC50 (Protein RecA): 1.29 µM (active)

SMILES: C[C@@H]1CCCCO[C@@H](CN(C)CC2CCCCC2)[C@@H](C)CN([C@H](C)CO)C(=O)c2cc(NC(=O)Nc3ccc(C(F)(F)F)cc3)ccc2O1
- AC50 [5]: 1.63 µM (active)

SMILES: COc1ccccc1-c1c(C)nn2c(O)c(Cc3ccccc3)c(C)nc12
- CC50 [1]: > 40 µM (active)

SMILES: c1cncc(CNc2ncnc3sc4c(c23)CCCC4)c1
- AC50 [4]: > 380 µM (inactive)
- EC50 (Protein RecA): > 380 µM (inactive)

SMILES: COC(=O)c1scc2c(O)cc(C(F)(F)F)nc12
- IC50 [2]: 35.7 µM (inactive)
- IC50 [3]: > 66 µM (inactive)
- EC50 [7]: 5.75 µM (active)

SMILES: C[C@H]1CN([C@@H](C)CO)C(=O)c2cccc(NC(=O)Nc3cccc4ccccc34)c2O[C@H]1CN(C)Cc1ccc(C(F)(F)F)cc1
- AC50 [5]: 2.85 µM (active)
